Data taken from article PMC7913925, “Design and Evaluation of a Polypeptide That Mimics the Integrin Binding Site for EDA Fibronectin to Block Profibrotic Cell Activity” (International Journal of Molecular Sciences, 2021).
Bridges are numbered along the chain shown (N, C = ends). Where no end group is shown, it is not given here.

Experiments:
[1] = molecular target: FN-RGD (RGD motif of fibronectin) (Homo sapiens, UniProt P02751); assay: Isothermal calorimetry, AF38Pep with FN-RGD; assay type: binding; conditions: 25 °C, pH 7
Method: (§1) Custom designed peptides were resuspended in sterile-filtered HEPES buffered saline (140 mM NaCl, 1.5 mM Na2HPO4, 50 mM HEPES; pH 7). The larger EDA-FN binding peptide was diluted to 15 µM, degassed and added to the calorimetry chamber well. Three smaller test peptides (fibronectin EDA-peptide, FN-EDA; fibronectin RGD-peptide, FN-RGD and collagen I RGD-peptide, COL-RGD) were diluted to 300 µM, degassed and each was separately loaded into the calorimetry injection needle. The chamber well temperature was kept consistent at 25 °C. Blank buffer was used to replace either the well peptide or the injection needle peptide to account for background heat generation. Isothermal titration calorimetry was performed using a MicroCal iTC200 (Malvern Panalytical, Malvern, UK) and dissociation constant (KD) and association constant (KA) were calculated using the one set of sites model fitting (with number of binding sites assumed to be 1) in MicroCal Origin Software v8.5 (Malvern Panalytical).

[2] = system: vascular cell adhesion protein-1 (VCAM1); assay: Western blot total protein VCAM1; assay type: cell-based; conditions: 48 h TGF-β1, AF38Pep or TGF-β1+AF38Pep
[3] = molecular target: COL-RGD (RGD motif of collagen I) (Homo sapiens, UniProt P02452); assay: Isothermal calorimetry, AF38Pep with COL-RGD; assay type: binding; conditions: 25 °C, pH 7
Method: as §1

EDA-FN–ITGA4 interaction = assay: Co-IP of EDA-FN with ITGA4; assay type: cell-based; conditions: 48 h, Co-IP with anti-ITGA4
Method: (§2) Total protein was extracted from cells in RIPA lysis buffer containing 1% protease inhibitor cocktail, 1% phenylmethylsulfonyl fluoride, and 1% sodium orthovanadate (Santa Cruz Biotechnology, Santa Cruz, CA, USA). Protein was quantified by Micro BCA Protein Assay Kit (Thermo Fisher Scientific) before 7.5% SDS-PAGE and transfer to nitrocellulose. Membranes were blocked with 5% bovine serum albumin (BSA; Sigma-Aldrich)/0.5% Tween-20 (Sigma-Aldrich)/PBS for 1 h, RT, followed by incubation with primary antibodies diluted in 1% BSA/0.1% Tween-20/PBS, overnight at 4 °C. Primary antibodies were: anti-phosphoY204/Y187 ERK1/2 (1:1000); anti-ERK1/2 (1:1000); anti-phosphoY861 FAK (1:1000); anti-FAK (1:2000). Immunoblotting for anti-GAPDH (1:2500) was used as a protein loading control. Following wash steps, membranes were incubated in goat anti-rabbit IgG H&L secondary antibody (horseradish peroxidase, HRP conjugate, […]) (Abcam; 1:5000 dilution, 1% BSA/0.1% Tween-20/PBS). Detection was performed using Immobilon reagent (Merck Millipore, Burlington, MA, USA) and imaged using a Tanon 5500 Chemiluminescent Imaging System (Tanon, Shanghai, China).
(§3) A volume of 25 µg total protein from cell lysate in nondenaturing lysis buffer containing protease inhibitors was immunoprecipitated (IP) using anti-ITGA4 antibodies linked to protein A/G sepharose beads (Abcam). […]

VCAM1–ITGA4 interaction = assay: Co-IP of VCAM1 with ITGA4; assay type: cell-based; conditions: 48 h, Co-IP with anti-ITGA4
Method: as §2, §3

[4] = system: FAK in NIH/3T3 fibroblasts; assay: Western blot FAK phosphorylation and total protein; assay type: cell-based, mouse; conditions: TGF-β1 10 ng/mL, AF38Pep 10 µg/mL
Method: as §2

[5] = system: α-SMA in NIH/3T3 dermal fibroblasts; assay: Immunocytochemistry α-SMA stress fibers; assay type: cell-based, mouse; conditions: 48 h, TGF-β1 10 ng/mL, AF38Pep 10 µg/mL
Method: Cells were grown to 40% confluence in 8-well glass chamber slides (Nunc, Thermo Fisher Scientific), prior to growth arrest and treatment. Cells were washed with PBS before fixation in 4% paraformaldehyde for 10 min at room temperature. Next, cells were permeabilized with 0.1% (v/v) Triton X-100 in PBS for 10 min at room temperature. For visualization of ECM, cells were fixed with 100% ice-cold methanol for 8 min at −20 °C. Slides were washed with PBS and blocked with 1% goat serum (TBD Science, Tianjin, China) for 30 min before washing with 0.1% (w/v) BSA in PBS. Subsequently, slides were incubated with monoclonal mouse anti-α-SMA antibody (Sigma-Aldrich, 1:50) diluted in 0.1% BSA-PBS, overnight at 4 °C. After further wash steps, slides were incubated with goat anti-mouse IgG CF-488 secondary antibody (Abcam, 1:1000) in 0.1% BSA-PBS for 1 h at room temperature and under darkness. For F-actin visualization, after fixation and permeabilization; cells were incubated with phalloidin conjugated to FITC (Sigma-Aldrich) in 0.1% BSA-PBS, overnight at 4 °C. Cells were then mounted in DAPI Fluoromount-G (Thermo Fisher Scientific) and imaged using a Zeiss Axio Imager Z1 UV fluorescence microscope (Zeiss, Jena, Germany) and a Leica TCS SP5 laser scanning confocal microscope (Leica Biosystems, Baden-Württemberg, Germany).

[6] = system: Ltbp1 mRNA in NIH/3T3 fibroblasts; assay: qRT-PCR Ltbp1 mRNA; assay type: cell-based, mouse; conditions: 48 h, TGF-β1 10 ng/mL
Method: Reverse transcription (RT) and real-time quantitative PCR (qRT-PCR) were used to assess ACTA2/Acta2, Col1a1, Col3a1, Fn1, Eda-Fn1, Mmp9, Tgfb1, Ltbp1, Hic5, and Mrtfa mRNA expressions. Custom PCR primers were designed in-house (Table 2) and then synthesized by BGI (Beijing, China). Cells were grown in 6-well culture plates and washed with phosphate buffered saline (PBS) before lysis with TRIzon Reagent (CWBio, Beijing, China) and total RNA purification according to the manufacturer’s protocol. Reverse transcription was carried using the TransScript First-Strand cDNA Synthesis SuperMix kit according to the manufacturer’s protocol (TransGen, Beijing, China), using the random primer method for the initiation of cDNA synthesis. Nuclease-free H2O replaced the RNA sample to serve as a negative control for the reverse transcription reaction. For qRT-PCR, 10 µL 2× TransStart Top Green qPCR SuperMix was added to each well of a 96-well PCR plate containing 0.4 µL forward primer, 0.4 µL reverse primer, […], and nuclease-free water to a total volume of 20 µL. The qRT-PCR reaction was completed using a CFX96 Real-Time PCR Detection System (Bio-Rad Laboratories, Hercules, CA, USA). Amplification used the following parameters: 94 °C for 30 s, followed by 40 cycles of 94 °C for 5 s, 55 °C for 15 s, 72 °C for 10 s, and then a dissociation stage (melt-curve). […]

## VMPYISTTPAKPCTSENCGNSWYGGFKSKNENKIYFIN (disulfide 13-18 (inferred)) [AF38Pep]
[1]
  ITC interaction (thermogram): not between AF38Pep and FN-RGD or COL-RGD
[2]
  VCAM1 total protein: remained unaffected
[3]
  ITC interaction (thermogram): not between AF38Pep and FN-RGD or COL-RGD
EDA-FN–ITGA4 interaction
  EDA-FN–ITGA4 interaction: specifically inhibited EDA-FN–ITGA4 interactions
VCAM1–ITGA4 interaction
  VCAM1–ITGA4 binding: unaffected by cell treatments and remained at basal levels
[4]; 1 h
  FAK phosphorylation: significantly suppressed
[4]; 12 h
  FAK phosphorylation: significantly less activation
  total FAK protein: marginally reduced
[5]
  α-SMA protein expression (stress fibers): inhibited
[6]
  LTBP1 mRNA expression: attenuated
